Measurements taken from patent US4607024A, “Epoxypropylphosphonate salt of jesamycin and pharmaceutical composition containing same” (Schering S.p.A., priority 1983, dated 1986).
Structures can show the parent of a compound that is named as a salt. Where two headings read alike, the source gives them in different places.

How the values were obtained:
[1] = in vivo; design: species or system Wistar rats of both sexes; details: rat, rats
Method: (§1) The acute toxicity of the compound of the invention was determined on mice and rats (Swiss mice of both sexes and Wistar rats of both sexes), after oral and intravenous administration of the compound of the invention. It was expressed as an LD50 value, calculated according to the method of Lichtfield and Wilcoxon. The obtained intravenous values were 418 mg/kg in rats and 386 mg/kg in mice.

[2] = in vivo; design: species or system Swiss mice of both sexes; details: mouse, mice
Method: as §1

[3] = system: male Wistar rats; assay: Chronic toxicity, 3 months; format: in vivo; details: 250 mg/kg daily oral or 50 mg/kg daily subcutaneous, body weight, haematic crasis, urinary elimination, biochemical parameters, anatomo-pathology
Method: Three groups of male Wistar rats (average weight: 155 g) were used in this experiment. A first group received a daily dosage of 250 mg/kg of the compound to be tested by oral route, a second group received a daily amount of 50 mg/kg of the same substance by subcutaneous route, a third group (controls) received nothing. The experiment was carried on for 3 consecutive months.
Since the beginning, as well as during and after the treatment, the animals were constantly monitored with respect to the increase in body weight, the haematic crasis, the urinary elimination and various biochemical parameters. At the end of the treatment, all the animals were sacrificed and subjected to anatomo-pathological investigations.

[4] = system: pregnant rats; assay: Teratological investigation in pregnant rats; format: in vivo; details: 50 mg/kg s.c. or 300 mg/kg p.o. daily, 1st to 15th day of pregnancy
[5] = system: pregnant rabbits; assay: Teratological investigation in pregnant rabbits; format: in vivo; details: 50 mg/kg s.c. or 300 mg/kg p.o. daily, 7th to 15th day of pregnancy
[6] = system: newborns; assay: Neonatal investigation (growth and survival of the newborns); format: in vivo; details: 30 days from birth, versus controls
[7] = design: species or system New Zealand rabbits; details: rabbit, in vivo, po; for haematic levels of Josamycin at the 6th hour: 6 h
Method: The determination of the Josamycin levels was performed both by biological way (Grove, D. C., and Randall, W. A., 1955) and by High Pressure Liquid Chromatography (HPLC).

[8] = Absorption, haematic and tissue levels (general statement); format: in vivo
[9] = system: Josamycin-sensitive bacteria; assay: Antibacterial spectrum in vitro, agar dilution method; format: cell-based; details: versus Josamycin
[10] = system: Josamycin-sensitive bacteria; assay: Antibacterial spectrum in vivo, infected mice; details: versus Josamycin
[11] = Solubility in water; format: physicochemical
[12] = Toxicity (general statement)
[13] = system: Josamycin-sensitive bacteria; assay: Antibacterial spectrum (general statement); details: versus Josamycin
[14] = oral, could not be determined, no deaths up to 5000 mg/kg, read-out: oral LD50

SMILES | LD50 ([1]; intravenous, read-out: LD50) [mg/kg] | LD50 [1, 14] [mg/kg] | LD50 ([2]; intravenous, read-out: LD50) [mg/kg] | LD50 [2, 14] [mg/kg] | alteration of toxic character [3] | alteration of the normal embrional or fetal development [4] | alteration of the normal embrional or fetal development [5] | growth and survival of the newborns [6] | duration of haematic levels [7] | haematic levels of Josamycin at the 6th hour [7] [µg/mL] | absorption ([8]; oral route) | duration of tissue and haematic levels ([8]; oral route) | tissue and haematic levels relative to equivalent amounts of Josamycin ([8]; oral, versus free base and propionate) | haematic levels of Josamycin relative to equivalent dosages of Josamycin ([8]; versus free base and propionate) | antibacterial spectrum [9] | antibacterial spectrum [10] | solubility in water [11] | toxicity [12] | antibacterial spectrum [13]
CO[C@@H]1[C@@H](O[C@@H]2O[C@H](C)[C@@H](O[C@H]3C[C@@](C)(O)[C@@H](OC(=O)CC(C)C)[C@H](C)O3)[C@H](N(C)C)[C@H]2O)[C@@H](CC=O)C[C@@H](C)[C@@H](O)/C=C/C=C/C[C@@H](C)OC(=O)C[C@H]1OC(C)=O [salt of formula (I), salt of the macrolide antibiotic Josamycin with (-)-cis-1,2-epoxypropyl phosphonic acid] | 418 | > 5000 | 386 | > 5000 | did not reveal any alteration of toxic character | did not cause any alteration of the normal embrional or fetal development | did not cause any alteration of the normal embrional or fetal development | comparable with those of the controls | longer lasting | 0.297 | highly absorbed | significantly long lasting | nearly twice | twice | comparable with that of Josamycin | comparable with that of Josamycin | high solubility in water | very little toxic | comparable with that of Josamycin
CO[C@@H]1[C@@H](O[C@@H]2O[C@H](C)[C@@H](O[C@H]3C[C@@](C)(O)[C@@H](OC(=O)CC(C)C)[C@H](C)O3)[C@H](N(C)C)[C@H]2O)[C@@H](CC=O)C[C@@H](C)[C@@H](O)/C=C/C=C/C[C@@H](C)OC(=O)C[C@H]1OC(C)=O [Josamycin, reference compound] | – | – | – | – | – | – | – | – | – | 0.139 | – | – | – | – | – | – | – | – | –
